Patent publication EP4643869A1, “USE OF GNRH ANTAGONISTS SUCH AS TEVERELIX TO TREAT ACUTE URINARY RETENTION” (Antev Limited, priority 2024, dated 2025)
Counter-ions that a name gives are not always drawn. Where a SMILES comes first, the peptide text is derived from it. [ ]: non-standard residue; d: D form. dPhe(4-Cl) = N[C@H](Cc1ccc(Cl)cc1)C(=O)O; d2Nal = N[C@H](Cc1ccc2ccccc2c1)C(=O)O; d(hCit) = NC(=O)NCCCC[C@@H](N)C(=O)O; Lys(iPr) = CC(C)NCCCC[C@H](N)C(=O)O; d3Pal = N[C@H](Cc1cccnc1)C(=O)O

How the values were obtained:
[1] = test system: patients with a first episode of AUR related to BPH; settings: alfuzosin 10 mg once daily; placebo 39.7%; cited from earlier work
[2] = test system: patients 50 years or over, with BPH and bothersome voiding symptoms; experiment: Investigator rating of efficacy and tolerability at final assessment (Experiment I); type: in vivo, human
Experimental: This was a multicentre (n=8), randomised, double-blind, placebo-controlled study in treatment of patients 50 years or over, with BPH and bothersome voiding symptoms characterized as an International Prostate Symptom Score (IPSS score ≥13) and a uroflow <13 mL/sec for a voided volume ≥150 mL. Exclusion criteria included an urgent need for prostate surgery, elevated prostate specific antigen (PSA) levels above the upper limit of normal relative to age, major organ dysfunction, prior surgical treatment of the prostate or bladder, and a large residual urine volume (>350 mL).
The study comprised two periods: a four-week single-blind placebo run-in period for all patients to remove any placebo responders and reduce between-patient variability in baseline measurements. This was followed by a 16-week randomised, double-blind, placebo-controlled, parallel group period for eligible patients. Following screening (Day-28), patients entered the placebo run-in period and received two subcutaneous injections of placebo, 48 h apart. During this period, one visit was planned for training purposes (e.g., IPSS). […]
At the final assessment, the investigator assessed efficacy and tolerability as either very good/good, satisfactory, poor/insufficient, or not assessable.

[3] = test system: patients 50 years or over, with BPH and bothersome voiding symptoms; experiment: Safety: adverse events (Experiment I); type: in vivo, human
Experimental: (§1) The study comprised two periods: a four-week single-blind placebo run-in period for all patients to remove any placebo responders and reduce between-patient variability in baseline measurements. This was followed by a 16-week randomised, double-blind, placebo-controlled, parallel group period for eligible patients. Following screening (Day-28), patients entered the placebo run-in period and received two subcutaneous injections of placebo, 48 h apart. During this period, one visit was planned for training purposes (e.g., IPSS). At the end of the placebo run-in period, patients still meeting the eligibility criteria were randomised to receive two subcutaneous injections of 60 mg teverelix or placebo, 48 h apart, on day 1 and day 3. Teverelix was supplied as a freeze-dried powder that was reconstituted with 5% mannitol in water for injection. Corresponding placebo formulations, without teverelix-TFA, were also prepared. Injections were given in the abdomen. Patients attended follow-up visits for up to 16 weeks.
Safety included the assessment of adverse events (AEs), vital signs (supine blood pressure and pulse), electrocardiograms (ECG), and clinical laboratory parameters (haematology, clinical chemistry, and urinalysis). Drug-related AEs were defined as those with a relationship to study drug of `likely' or `not assessable'.

[4] = Plasma concentrations of teverelix (Experiment I); type: in vivo, human; settings: 60 mg s.c. on Day 1 and Day 3
Experimental: as §1
Blood samples were gathered in the morning on Day 1 and Day 3 prior to dosing, along with assessments at the conclusion of Weeks 1, 2, 3, 4, 8, 12, and the final evaluation at Week 16, for the measurement of teverelix, testosterone, and dihydrotestosterone (DHT). Plasma concentrations of teverelix were analysed to delineate the release profile of the active substance from teverelix.

testosterone = experiment: PKPD of single-dose teverelix-TFA, subcutaneous or intramuscular; type: in vivo; settings: single dose of 120 mg subcutaneous
male and female subjects = experiment: Safety across 16 Phase 1 and Phase 2 clinical trials; type: in vivo; settings: 1,117 injections s.c. or i.m.; no SUSARs reported
Experimental: Teverelix-TFA has been studied in 450 male and female subjects in 16 Phase 1 and Phase 2 clinical trials. Teverelix-TFA has been tested in various dosing regimens in Phase 2 clinical trials in 97 patients with BPH.
Administrations have ranged from a single dose of 0.125 mg up to 180 mg repeat doses of teverelix for three consecutive days.

**Q.** Which “success rate after 6 months (successful TWOC and no AUR relapse nor any need for surgery)” value [1] does the source give for `COc1cc2nc(N(C)CCCNC(=O)C3CCCO3)nc(N)c2cc1OC` (stereo not shown) [alfuzosin] here?
**A.** The value was 43.5%.

**Q.** What does the source list for `CC(=O)N[C@H](Cc1ccc2ccccc2c1)C(=O)N[C@H](Cc1ccc(Cl)cc1)C(=O)N[C@H](Cc1cccnc1)C(=O)N[C@@H](CO)C(=O)N[C@@H](Cc1ccc(O)cc1)C(=O)N[C@H](CCCCNC(N)=O)C(=O)N[C@@H](CC(C)C)C(=O)N[C@@H](CCCCNC(C)C)C(=O)N1CCC[C@H]1C(=O)N[C@H](C)C(N)=O` [teverelix, N-Ac-d-Nal^1,d-pCl-Phe^2,d-Pal^3,d-(Hci)^6,Lys(iPr)^8,d-Ala^10 trifluoroacetate] (Ac-[d2Nal][dPhe(4-Cl)][d3Pal]SY[d(hCit)]L[Lys(iPr)]P[dA]-NH2)?
**A.** patients rated by the investigator as having very good/good tolerability [2]: all patients; patients reporting an AE likely drug-related or not assessable ([3]; 22 patients of 41): 53.7%; intensity of drug-related AEs ([3]; in vivo): mild intensity; patients with drug-related hyperuricaemia ([3]; in vivo): one patient; patients with drug-related urinary retention ([3]; in vivo): 1 patient; serious AEs, assessed as not drug related ([3]; in vivo): cholelithiasis/pancreatitis; injection site induration ([3]; share of patients): 17.1%; pain (AE) ([3]; share of patients): 2.4%; subcutaneous injection site reactions ([3]; share of patients): 31.7%; time until which teverelix plasma concentrations kept rising [4]: until the end of Week 3; PKPD profile versus two subcutaneous injections of 60 mg two days apart (testosterone): comparable; overall safety and tolerability (male and female subjects): safe and well-tolerated
